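Exposure lasted 48 hours, with cells grown in 96-well plates and compounds tested at five concentrations. Abbreviation: GI50, concentration required for 50% inhibition of growth.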 Activity calls are given as the source filed them. Rule as the data show it: active = GI50 up to about 1.1 µM and inactive = higher.
Experiments:
Assay in all cases: NCI tumour cell line growth inhibition, 48 h
IGROV-1 = test system: IGROV-1
HCT-116 = test system: HCT-116
SN12C = test system: SN12C
UACC-257 = test system: UACC-257
SK-OV-3 = test system: SK-OV-3
SK-MEL-28 = test system: SK-MEL-28
A549 = test system: A549
SW-620 = test system: SW-620
MOLT-4 = test system: MOLT-4
HCT-15 = test system: HCT-15
SF-268 = test system: SF-268
K562 = test system: K562
U-251 = test system: U-251
CAKI-1 = test system: CAKI-1
HOP-62 = test system: HOP-62
SNB-19 = test system: SNB-19
Malme-3M = test system: Malme-3M
COLO 205 = test system: COLO 205
SF-539 = test system: SF-539
NCI-H226 = test system: NCI-H226

Row | SMILES | GI50 (IGROV-1) | GI50 (HCT-116) | GI50 (SN12C) | GI50 (UACC-257) | GI50 (SK-OV-3) | GI50 (SK-MEL-28) | GI50 (A549) | GI50 (SW-620) | GI50 (MOLT-4) | GI50 (HCT-15) [µM] | GI50 (SF-268) | GI50 (K562) | GI50 (U-251) | GI50 (CAKI-1) | GI50 (HOP-62) | GI50 (SNB-19) | GI50 (Malme-3M) | GI50 (COLO 205) | GI50 (SF-539) | GI50 (NCI-H226)
1 | O=C1C=CC(CC(=O)c2ccc3ccccc3c2)O1 (stereo not given) | 29.2 µM (inactive) | 17.9 µM (inactive) | 18.8 µM (inactive) | 47.6 µM (inactive) | 68.1 µM (inactive) | 55.8 µM (inactive) | 61.9 µM (inactive) | 26.5 µM (inactive) | 21.7 µM (inactive) | 20.5 | 17.6 µM (inactive) | 32.9 µM (inactive) | 18.2 µM (inactive) | 62.1 µM (inactive) | 21.5 µM (inactive) | 32.7 µM (inactive) | 34.3 µM (inactive) | 18 µM (inactive) | 18.9 µM (inactive) | 
2 | CCOC(=O)CCN1C(=O)c2c(NC(=O)C(=O)O)cccc2S1(=O)=O | > 100 µM (inactive) | > 100 µM (inactive) | > 100 µM (inactive) | > 100 µM (inactive) | > 100 µM (inactive) | > 100 µM (inactive) | > 100 µM (inactive) | > 100 µM (inactive) | > 100 µM (inactive) | > 100 | > 100 µM (inactive) | > 100 µM (inactive) | > 100 µM (inactive) | > 100 µM (inactive) | > 100 µM (inactive) | > 100 µM (inactive) | > 100 µM (inactive) | > 100 µM (inactive) |  | > 100 µM (inactive)
3 | CCc1c(-c2ccc(OC)cc2)oc(OC)c(C)c1=O | > 100 µM (inactive) | 55.1 µM (inactive) | > 100 µM (inactive) | 65.6 µM (inactive) | > 100 µM (inactive) | > 100 µM (inactive) | 79.1 µM (inactive) | > 100 µM (inactive) | 31.9 µM (inactive) | > 100 | > 100 µM (inactive) | 34.2 µM (inactive) | > 100 µM (inactive) | 99.1 µM (inactive) | > 100 µM (inactive) | > 100 µM (inactive) |  | > 100 µM (inactive) | > 100 µM (inactive) | 
4 | CC1(C=O)C(=O)CCC2(C)C3CC(=O)OC3CCC12 (stereo not given) | > 100 µM (inactive) |  | > 100 µM (inactive) | > 100 µM (inactive) | > 100 µM (inactive) | > 100 µM (inactive) | > 100 µM (inactive) | > 100 µM (inactive) | > 100 µM (inactive) | > 100 | > 100 µM (inactive) | > 100 µM (inactive) | > 100 µM (inactive) | > 100 µM (inactive) | > 100 µM (inactive) | > 100 µM (inactive) | > 100 µM (inactive) | > 100 µM (inactive) | > 100 µM (inactive) | 
5 | COC(=O)c1ccc(NC(=O)c2cc3c(cc2Br)OCO3)o1 | > 100 µM (inactive) | > 100 µM (inactive) | > 100 µM (inactive) | > 100 µM (inactive) | > 100 µM (inactive) | > 100 µM (inactive) | > 100 µM (inactive) | > 100 µM (inactive) | 95.7 µM (inactive) | 94 | 0.471 µM (active) | 63.2 µM (inactive) | > 100 µM (inactive) | > 100 µM (inactive) | > 100 µM (inactive) | > 100 µM (inactive) |  | > 100 µM (inactive) | > 100 µM (inactive) | > 100 µM (inactive)
6 | CCOP1(=O)C=C(C)C(Cl)=C(C)C1 (stereo not given) | 56.1 µM (inactive) | 17.2 µM (inactive) | 21 µM (inactive) | 23.1 µM (inactive) | 60.3 µM (inactive) | 17.3 µM (inactive) | 21.1 µM (inactive) | 21.1 µM (inactive) | 20.4 µM (inactive) | 23.3 | 38.9 µM (inactive) | 23.4 µM (inactive) | 24.3 µM (inactive) |  | > 100 µM (inactive) | > 100 µM (inactive) |  | 12 µM (inactive) | 23.1 µM (inactive) | 21.4 µM (inactive)
7 | CC(NC(=O)OC(C)(C)C)C(=O)NC1CCCC1 (stereo not given) | > 100 µM (inactive) | > 100 µM (inactive) | > 100 µM (inactive) | > 100 µM (inactive) | > 100 µM (inactive) | > 100 µM (inactive) | > 100 µM (inactive) | > 100 µM (inactive) | > 100 µM (inactive) |  | > 100 µM (inactive) | > 100 µM (inactive) |  | > 100 µM (inactive) |  | > 100 µM (inactive) | > 100 µM (inactive) | > 100 µM (inactive) |  | > 100 µM (inactive)
8 | COc1cccc(CN(C(=O)/C=C\Sc2ccccc2)C(C)(C)C)c1 | 57.1 µM (inactive) | 33 µM (inactive) | > 100 µM (inactive) | 41 µM (inactive) | > 100 µM (inactive) | > 100 µM (inactive) | 43.8 µM (inactive) | > 100 µM (inactive) | 18.1 µM (inactive) | 44.6 |  |  | > 100 µM (inactive) | > 100 µM (inactive) | > 100 µM (inactive) | > 100 µM (inactive) |  | 63.7 µM (inactive) | > 100 µM (inactive) | > 100 µM (inactive)
9 | Cc1ccc(/N=N/C(=N\c2ccc(F)cc2)c2ccc(N(CCC#N)CCC#N)cc2)cc1 | 70.1 µM (inactive) | 74.1 µM (inactive) | > 100 µM (inactive) | 30.3 µM (inactive) | > 100 µM (inactive) | > 100 µM (inactive) | 45.9 µM (inactive) | > 100 µM (inactive) | > 100 µM (inactive) | > 100 | > 100 µM (inactive) | > 100 µM (inactive) | 36.2 µM (inactive) | > 100 µM (inactive) | > 100 µM (inactive) | > 100 µM (inactive) |  | 64.4 µM (inactive) | > 100 µM (inactive) | > 100 µM (inactive)
10 | CCOC(=O)N1C(=S)C(C(=O)OC)(C(=O)OC)N=C1C | > 100 µM (inactive) | > 100 µM (inactive) | > 100 µM (inactive) | > 100 µM (inactive) | > 100 µM (inactive) | > 100 µM (inactive) | > 100 µM (inactive) | > 100 µM (inactive) | > 100 µM (inactive) | > 100 |  | > 100 µM (inactive) | > 100 µM (inactive) | > 100 µM (inactive) | > 100 µM (inactive) | > 100 µM (inactive) |  | > 100 µM (inactive) |  | > 100 µM (inactive)
11 | CC1=N/C(=C\c2ccc(N)cc2)C(=O)N1Nc1nnc(NN2C(=O)/C(=C/c3ccc(N)cc3)N=C2C)c2ccccc12 | 85.9 µM (inactive) | > 100 µM (inactive) | 96.2 µM (inactive) | > 100 µM (inactive) |  | > 100 µM (inactive) | > 100 µM (inactive) | 83.9 µM (inactive) | 35.2 µM (inactive) | 82.2 | 55 µM (inactive) | 27.4 µM (inactive) | 45.4 µM (inactive) |  | 23.1 µM (inactive) | 33 µM (inactive) |  | 83.6 µM (inactive) | 24.8 µM (inactive) | 14.3 µM (inactive)
12 | O=C1O/C(=C\c2ccc(O)c(Br)c2)C(c2ccc(O)c(Cl)c2)=C1Br | 21.9 µM (inactive) | 13.7 µM (inactive) | 25.8 µM (inactive) | 15.8 µM (inactive) | 18 µM (inactive) | 16.3 µM (inactive) | 18.4 µM (inactive) | 17.3 µM (inactive) | 16.6 µM (inactive) | 12.7 | 14.3 µM (inactive) | 17.3 µM (inactive) | 13.5 µM (inactive) | 27 µM (inactive) | 19.9 µM (inactive) | 18.3 µM (inactive) | 17.9 µM (inactive) | 18.1 µM (inactive) | 18.6 µM (inactive) | 
13 | C/C(=N/NC(=S)NCCc1ccccn1)c1cnccn1 | 19 µM (inactive) | 23.2 µM (inactive) | 21.9 µM (inactive) | 35.6 µM (inactive) | 20.1 µM (inactive) | 31 µM (inactive) | 28.8 µM (inactive) | 11.9 µM (inactive) | 3.26 µM (inactive) |  | 38.5 µM (inactive) |  | 20.2 µM (inactive) | 14.1 µM (inactive) | 31.2 µM (inactive) | 54.7 µM (inactive) | 6.37 µM (inactive) | 3.8 µM (inactive) |  | 
14 | CC(C)=CC1C(C(=O)OCc2cc3c(cc2Cl)OCO3)C1(C)C (stereo not given) | 20 µM (inactive) | 26.4 µM (inactive) | 28.6 µM (inactive) | 12.6 µM (inactive) |  | 54.1 µM (inactive) | 31.5 µM (inactive) | 55.7 µM (inactive) | 13.1 µM (inactive) | 30.1 | 39.7 µM (inactive) | 20.1 µM (inactive) | 12.6 µM (inactive) | 56.1 µM (inactive) | 22.7 µM (inactive) | > 100 µM (inactive) | 15.5 µM (inactive) |  |  | 39.6 µM (inactive)
15 | O=C1/C(=C/c2ccc(Br)cc2)CCC/C1=C\c1ccc(Br)cc1 | 15.3 µM (inactive) | 1.73 µM (inactive) | 19.7 µM (inactive) | 4.2 µM (inactive) | 56.8 µM (inactive) | 2.12 µM (inactive) | 12.4 µM (inactive) | 5.13 µM (inactive) | 7.11 µM (inactive) | 5.13 | 17.2 µM (inactive) | 4.31 µM (inactive) | 7.05 µM (inactive) | 29.2 µM (inactive) | 20 µM (inactive) | 18.9 µM (inactive) | 19.6 µM (inactive) | 12.7 µM (inactive) | 16 µM (inactive) | 
16 | O=C1c2cccc(O)c2C(=O)c2c(O)cc(CO)cc21 [ALOE-EMODIN] |  | 30.1 µM (inactive) | 35.4 µM (inactive) | 49.8 µM (inactive) | > 100 µM (inactive) | > 100 µM (inactive) | 40 µM (inactive) | 30.5 µM (inactive) | 40.8 µM (inactive) | 28.1 | 52.4 µM (inactive) |  | > 100 µM (inactive) | 49.1 µM (inactive) | > 100 µM (inactive) | 49.1 µM (inactive) | 20.8 µM (inactive) | 31.7 µM (inactive) |  | > 100 µM (inactive)
